Holding throughout (test): minimal inhibitory concentration in Sabouraud medium
Holding throughout (format): cell-based

Experiment [1] has as its system Saccharomyces cerevisiae OKI.1282. Particulars: Saccharomyces cerevisiae. An excerpt: Saccharomyces cerevisiae OKI.1282
(§1) As a medium Saboroud medium was employed.

Experiment [2] has as its system Candida albicans CBS.562. Particulars: Candida albicans.
Excerpt: Candida albicans CBS.562 "2"
as §1

For experiment [3], the system named is Aspergillus niger CBS.12648. The following applies: Aspergillus niger.
Excerpt: Aspergillus niger CBS.12648
as §1

Experiment [4] concerns Penicillium digitatum CBS.31948. Particulars: Penicillium digitatum.
Excerpt: Penicillium digitatum CBS.31948
as §1

Experiment [5] has as its system Sporotrichum schenkii CBS.34035. The following applies: Sporotrichum.
Excerpt: Sporotrichum schenkii CBS.34035
as §1

In experiment [6] the test system is Trichophyton rubrum CBS.30338. The following applies: Trichophyton rubrum.
Excerpt: Trichophyton rubrum CBS.30338
as §1

The test system of experiment [7] is Trichophyton mentagrophytes CBS.50148. Particulars: Trichophyton mentagrophytes, read-out: minimal inhibitory concentration.
Excerpt: Trichophyton mentagrophytes CBS.50148
as §1

For experiment [8], the system named is Epidermophyton floccosum OKI/IV. The following applies: Epidermophyton floccosum, read-out: minimal inhibitory concentration.
Excerpt: Epidermophyton floccosum OKI/IV.
as §1

MIC data for four compounds are collected here from patent US4364958A, “1-Substituted-3-cycloalkyl-sulfonyl-pyrrolidine-2,5-dione derivatives and fungicidal compositions thereof” (Chinoin Gyogyszer es Vegyeszeti Termekek Gyara Rt., priority 1979, dated 1982).

Converted amounts (≈) assume the structure as drawn. Where two headings read alike, the source gives them in different places.

For `CC(=O)c1ccc(N2C(=O)CC(S(=O)(=O)C3CCCCC3)C2=O)cc1` (stereo not shown) [1-(4-acetylphenyl)-3-cyclohexyl-sulfonyl-pyrrolidine-2,5-dione], the MIC in experiment [1] (OKI.1282, 24 h, 24 hours) is 25 µg/mL (≈ 68.8 µM); in experiment [1] (OKI.1282, 48 h, 48 hours), 50 µg/mL (≈ 138 µM); in experiment [2] (CBS.562, 24 h, 24 hours), 50 µg/mL (≈ 138 µM); in experiment [2] (CBS.562, 48 h, 48 hours) it was 75 µg/mL (≈ 206 µM); in experiment [3] (CBS.12648, 72 h, 72 hours), 75 µg/mL (≈ 206 µM); in experiment [3] (CBS.12648, 144 h, 144 hours) it was 150 µg/mL (≈ 413 µM). Also, the MIC in experiment [3] (CBS.12648, 288 h, 288 hours) came to 150 µg/mL (≈ 413 µM); in experiment [4] (CBS.31948, 72 h, 72 hours), 75 µg/mL (≈ 206 µM); in experiment [4] (CBS.31948, 144 h, 144 hours) it was 100 µg/mL (≈ 275 µM); in experiment [4] (CBS.31948, 288 h, 288 hours), 150 µg/mL (≈ 413 µM); in experiment [5] (CBS.34035, 72 h, 72 hours), 5 µg/mL (≈ 13.8 µM); in experiment [5] (CBS.34035, 144 h, 144 hours) it was 25 µg/mL (≈ 68.8 µM). The MIC in experiment [5] (CBS.34035, 288 h, 288 hours) stood at 25 µg/mL (≈ 68.8 µM); in experiment [6] (CBS.30338, 72 h, 72 hours), 10 µg/mL (≈ 27.5 µM); in experiment [6] (CBS.30338, 144 h, 144 hours), 25 µg/mL (≈ 68.8 µM); in experiment [6] (CBS.30338, 288 h, 288 hours), 50 µg/mL (≈ 138 µM); in experiment [7] (CBS.50148, 72 h, 72 hours) it was 10 µg/mL (≈ 27.5 µM); in experiment [7] (CBS.50148, 144 h, 144 hours) it was 25 µg/mL (≈ 68.8 µM). Besides, the MIC in experiment [7] (CBS.50148, 288 h, 288 hours) turned out to be 25 µg/mL (≈ 68.8 µM); in experiment [8] (72 h), 25 µg/mL (≈ 68.8 µM); in experiment [8] (144 h), 50 µg/mL (≈ 138 µM); in experiment [8] (288 h), 75 µg/mL (≈ 206 µM).

With `O=C1CC(S(=O)(=O)C2CCCCC2)C(=O)N1c1ccc([N+](=O)[O-])cc1` (stereo not shown) [1-(p-nitrophenyl)-3-cyclohexylsulfonyl-pyrrolidine-2,5-dione], the MIC in experiment [1] (OKI.1282, 24 h, 24 hours) worked out at 25 µg/mL (≈ 68.2 µM); in experiment [1] (OKI.1282, 48 h, 48 hours) it was 50 µg/mL (≈ 136 µM); in experiment [2] (CBS.562, 24 h, 24 hours), 75 µg/mL (≈ 205 µM); in experiment [2] (CBS.562, 48 h, 48 hours) it was 150 µg/mL (≈ 409 µM); in experiment [3] (CBS.12648, 72 h, 72 hours), 75 µg/mL (≈ 205 µM); in experiment [3] (CBS.12648, 144 h, 144 hours) it was 150 µg/mL (≈ 409 µM). Moreover, the MIC in experiment [3] (CBS.12648, 288 h, 288 hours) came to 150 µg/mL (≈ 409 µM); in experiment [4] (CBS.31948, 72 h, 72 hours) it was 100 µg/mL (≈ 273 µM); in experiment [4] (CBS.31948, 144 h, 144 hours) it was 150 µg/mL (≈ 409 µM); in experiment [4] (CBS.31948, 288 h, 288 hours), 150 µg/mL (≈ 409 µM); in experiment [5] (CBS.34035, 72 h, 72 hours), 25 µg/mL (≈ 68.2 µM); in experiment [5] (CBS.34035, 144 h, 144 hours), 25 µg/mL (≈ 68.2 µM). Also, the MIC in experiment [5] (CBS.34035, 288 h, 288 hours) is 25 µg/mL (≈ 68.2 µM); in experiment [6] (CBS.30338, 72 h, 72 hours), 75 µg/mL (≈ 205 µM); in experiment [6] (CBS.30338, 144 h, 144 hours) it was 75 µg/mL (≈ 205 µM); in experiment [6] (CBS.30338, 288 h, 288 hours), 150 µg/mL (≈ 409 µM); in experiment [7] (CBS.50148, 72 h, 72 hours), 75 µg/mL (≈ 205 µM); in experiment [7] (CBS.50148, 144 h, 144 hours), 100 µg/mL (≈ 273 µM). The MIC was determined as 100 µg/mL (≈ 273 µM) in experiment [7] (CBS.50148, 288 h, 288 hours); 100 µg/mL (≈ 273 µM) in experiment [8] (72 h); 150 µg/mL (≈ 409 µM) in experiment [8] (144 h); 150 µg/mL (≈ 409 µM) in experiment [8] (288 h).

Take `Cc1ccccc1N1C(=O)CC(S(=O)(=O)C2CCCCC2)C1=O` (stereo not shown) [1-(o-tolyl)-3-cyclohexyl-sulfonyl-pyrrolidine-2,5-dione]: the MIC in experiment [1] (OKI.1282, 24 h, 24 hours) is 25 µg/mL (≈ 74.5 µM); in experiment [1] (OKI.1282, 48 h, 48 hours), 25 µg/mL (≈ 74.5 µM); in experiment [2] (CBS.562, 24 h, 24 hours), 75 µg/mL (≈ 224 µM); in experiment [2] (CBS.562, 48 h, 48 hours) it was 100 µg/mL (≈ 298 µM); in experiment [3] (CBS.12648, 72 h, 72 hours), 100 µg/mL (≈ 298 µM); in experiment [3] (CBS.12648, 144 h, 144 hours), 150 µg/mL (≈ 447 µM). Also, the MIC turned out to be 150 µg/mL (≈ 447 µM) in experiment [3] (CBS.12648, 288 h, 288 hours); 10 µg/mL (≈ 29.8 µM) in experiment [4] (CBS.31948, 72 h, 72 hours); 50 µg/mL (≈ 149 µM) in experiment [4] (CBS.31948, 144 h, 144 hours); 50 µg/mL (≈ 149 µM) in experiment [4] (CBS.31948, 288 h, 288 hours); 10 µg/mL (≈ 29.8 µM) in experiment [5] (CBS.34035, 72 h, 72 hours); 25 µg/mL (≈ 74.5 µM) in experiment [5] (CBS.34035, 144 h, 144 hours). The MIC in experiment [5] (CBS.34035, 288 h, 288 hours) amounted to 50 µg/mL (≈ 149 µM); in experiment [6] (CBS.30338, 72 h, 72 hours), 10 µg/mL (≈ 29.8 µM); in experiment [6] (CBS.30338, 144 h, 144 hours), 25 µg/mL (≈ 74.5 µM); in experiment [6] (CBS.30338, 288 h, 288 hours), 50 µg/mL (≈ 149 µM); in experiment [7] (CBS.50148, 72 h, 72 hours), 10 µg/mL (≈ 29.8 µM); in experiment [7] (CBS.50148, 144 h, 144 hours), 25 µg/mL (≈ 74.5 µM). Further, the MIC was found to be 25 µg/mL (≈ 74.5 µM) in experiment [7] (CBS.50148, 288 h, 288 hours); 5 µg/mL (≈ 14.9 µM) in experiment [8] (72 h); 10 µg/mL (≈ 29.8 µM) in experiment [8] (144 h); 10 µg/mL (≈ 29.8 µM) in experiment [8] (288 h).

Regarding `O=C1CC(S(=O)(=O)C2CCCCC2)C(=O)N1c1ccccc1Cl` (stereo not shown) [1-(2-chlorophenyl)-3-cyclohexyl-sulfonyl-pyrrolidine-2,5-dione], the MIC in experiment [1] (OKI.1282, 24 h, 24 hours) turned out to be 25 µg/mL (≈ 70.3 µM); in experiment [1] (OKI.1282, 48 h, 48 hours), 75 µg/mL (≈ 211 µM); in experiment [2] (CBS.562, 24 h, 24 hours), 50 µg/mL (≈ 141 µM); in experiment [2] (CBS.562, 48 h, 48 hours) it was 50 µg/mL (≈ 141 µM); in experiment [3] (CBS.12648, 72 h, 72 hours) it was 50 µg/mL (≈ 141 µM); in experiment [3] (CBS.12648, 144 h, 144 hours), 150 µg/mL (≈ 422 µM). The MIC was 150 µg/mL (≈ 422 µM) in experiment [3] (CBS.12648, 288 h, 288 hours); 25 µg/mL (≈ 70.3 µM) in experiment [4] (CBS.31948, 72 h, 72 hours); 50 µg/mL (≈ 141 µM) in experiment [4] (CBS.31948, 144 h, 144 hours); 50 µg/mL (≈ 141 µM) in experiment [4] (CBS.31948, 288 h, 288 hours); 10 µg/mL (≈ 28.1 µM) in experiment [5] (CBS.34035, 72 h, 72 hours); 50 µg/mL (≈ 141 µM) in experiment [5] (CBS.34035, 144 h, 144 hours). Further, the MIC in experiment [5] (CBS.34035, 288 h, 288 hours) stood at 50 µg/mL (≈ 141 µM); in experiment [6] (CBS.30338, 72 h, 72 hours), 2.5 µg/mL (≈ 7.03 µM); in experiment [6] (CBS.30338, 144 h, 144 hours) it was 10 µg/mL (≈ 28.1 µM); in experiment [6] (CBS.30338, 288 h, 288 hours), 10 µg/mL (≈ 28.1 µM); in experiment [7] (CBS.50148, 72 h, 72 hours) it was 2.5 µg/mL (≈ 7.03 µM); in experiment [7] (CBS.50148, 144 h, 144 hours) it was 5 µg/mL (≈ 14.1 µM). Moreover, the MIC in experiment [7] (CBS.50148, 288 h, 288 hours) stood at 5 µg/mL (≈ 14.1 µM); in experiment [8] (72 h) it was 2.5 µg/mL (≈ 7.03 µM); in experiment [8] (144 h), 5 µg/mL (≈ 14.1 µM); in experiment [8] (288 h), 10 µg/mL (≈ 28.1 µM).
